These results are taken from the METLIN SMRT retention time set (Domingo-Almenara et al. 2019).

A short description of the series: gradient 5% acetonitrile 3 min, to 50% in 2 min, to 85% in 15 min, held 3 min, 100 µL/min. The note with it: column: Zorbax Extend-C18 2.1 x 50 mm; eluents: water / acetonitrile, 0.1% formic acid. In short, it runs like this: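 The system's dead and dwell volumes were 40 μL and 900 μL, with a Zorbax Extend-C18 column (2.1 × 50 mm, 1.8 μm) run at 100 μL/min in water and acetonitrile containing 0.1% formic acid each. Pure standards were analyzed in mixtures of ~100 molecules by HPLC–quadrupole time-of-flight mass spectrometry in positive and negative ionization mode. Retention time was assigned from computationally picked, manually inspected adduct peaks.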
`CC(C)Cn1ccc2c(cc(C(=O)NCc3cccc(Br)c3)n2C)c1=O` displayed an RP-LC retention time of 901 s.
`O=C(Nc1ccc2cn[nH]c2c1)C1CN(c2nc3ccccc3s2)C1` had an RP-LC retention time of 630 s.
The compound `COCCc1noc(-c2cnc3nc(C)ccc3c2Nc2ccccc2Cl)n1` showed an RP-LC retention time of 779 s.
`c1ccc(-c2nc3nc4c(c(Nc5ccc6c(c5)OCCO6)n3n2)CCCC4)cc1` came in with an RP-LC retention time of 970 s.
The compound `Nc1nc(N)c2nc(-c3cccc(O)c3)c(-c3cccc(O)c3)nc2n1` yielded an RP-LC retention time of 630 s.
Then `O=c1c2cc(-c3ccc4c(c3)OCO4)nn2ccn1Cc1nc(-c2cccc(C(F)(F)F)c2)no1`, with 1110 s; and `O=C(NCCc1ccccc1)C1CCN(c2cc(N3CCCCC3)ncn2)CC1`, with 685 s; and `CCc1onc(C)c1C1CCCN1C(=O)c1cc(-c2ccc3c(c2)OCO3)on1` (centres undefined), with 928 s.
Then `COc1ccccc1-c1nnc(NC(=O)C2CCCN2S(=O)(=O)c2ccc(F)cc2)o1` (centres undefined), with 717 s; and `CC1CCC(NC(=O)C2CCN(C(=O)c3cc(-c4ccncc4)n[nH]3)CC2)CC1` (centres undefined), with 624 s; and `CC(C)Cn1cc(CCNC(=O)Nc2ccc(Br)cc2)c2cccnc21`, with 932 s.
Next, `COc1ccc(-c2c(C)noc2NC(C)=O)cc1S(=O)(=O)NCCC1=CCCCC1`: 886 s; `Cc1cccc(N(C)C(=O)Cn2nc3nc(N4CCCC4)ccn3c2=O)c1`: 678 s.
`Cc1ccc(Cl)c(NC(=O)c2[nH]c3cc(C)sc3c2CN(C)C)c1` showed an RP-LC retention time of 688 s.
`O=C(CN1CCN(C(=O)c2cc3cn(C4CCCC4)cc3s2)CC1)N1CCCC1` showed an RP-LC retention time of 1150 s.
Then `CCNc1cc(N2CCC(CCC(=O)Nc3ccc(C)cc3C)CC2)ncn1`, with 686 s; and `COc1ccc(-c2nnc(-c3ccc(C)c(S(=O)(=O)N4CCC(C)CC4)c3)o2)cc1`, with 1220 s; and `O=C1CC(c2cc(Br)ccc2F)c2scc(S(=O)(=O)c3ccccc3)c2N1` (centres undefined), with 1010 s.
Next, `CCC(C)NC(=O)c1ccc(Cn2nc(C)c(S(=O)(=O)N(C)C)c2C)cc1` (centres undefined): 754 s; `Cc1ccc(NS(=O)(=O)c2cc(-c3nc(C(C)C)cs3)cs2)c(Br)c1`: 1220 s.
`Cc1[nH]nc(-c2ccc(S(=O)(=O)N3CCC(C)CC3)o2)c1C` displayed an RP-LC retention time of 932 s.
Then `CC1CCN(S(=O)(=O)c2cc(C(=O)Nc3ccc(F)c(Cl)c3)n(C)c2)CC1`, with 1170 s; and `CCCn1c(=O)sc2cc(S(=O)(=O)N3CCC(C(=O)Nc4ccc(F)cc4)CC3)ccc21`, with 979 s; and `Cc1ccc(NC(=O)N2CC(c3nc(C(C)C)nn3C)C2)cc1C`, with 710 s.
As to `CS(=O)(=O)N1CCC(C(=O)N2CC(c3nc(-c4ccccn4)no3)C2)CC1`, the RP-LC retention time was determined as 579 s.
Next, `COc1ccc(-c2nc(CNC(=O)C3CCOC3)no2)cc1` (centres undefined): 677 s; `C=CCN1C(=O)COc2ccc(-c3csc(NC(=O)CC(C)C)n3)cc21`: 954 s.
With `CCN1C(=O)c2cccnc2Sc2cc(NC(=O)Cc3ccc(F)cc3)ccc21`, the RP-LC retention time stood at 816 s.
Take `CC(C)(N)c1ncc(-c2ccc(OC(F)(F)F)cc2)[nH]1`: the RP-LC retention time was 693 s.
Then `COCC(=O)NC(Cc1ccccc1)c1nnc(N2CCN(C)CC2)o1` (centres undefined), with 585 s; and `CCCn1cc(C(=O)NC(C)CC)c2nn(-c3ccccc3)c(=O)c-2c1` (centres undefined), with 880 s.
Compound `COc1cc(-c2nc3ncccn3c2NCc2ccc(Cl)cc2)ccc1OC(C)C` had an RP-LC retention time of 808 s.
As to `CCOc1ccccc1CNC1CCN(c2ccc(C(=O)NC3CC3)cn2)C1` (centres undefined), the RP-LC retention time is 579 s.
Then `CCOc1ccc(NC(=O)Cn2c(N3CCOCC3)nc(C)cc2=O)cc1`, with 654 s; and `CN1CC[C@]2(c3cccc(O)c3)Cc3nc4ccccc4cc3C[C@H]2C1`, with 572 s; and `Cc1cc(S(=O)(=O)N2CCc3c(c(-c4nnc(-c5ccccc5F)o4)nn3C)C2)ccc1F`, with 988 s.
In turn, `O=C(NOCCc1ccccc1)Nc1ccc([N+](=O)[O-])cc1` returned an RP-LC retention time of 843 s.
Compound `COCCNC(=O)c1nc2ccccn2c1-c1ccc(F)cc1` yielded an RP-LC retention time of 699 s.
Then `CCN1C(=O)COc2ccc(-c3noc(CNS(=O)(=O)c4ccc(F)cc4)n3)cc21`, with 860 s.
Next, `CCCNc1cc(N2CCC(CCC(=O)NCc3cc(F)ccc3F)CC2)ncn1`: 684 s.
Then `Cc1nc(COc2ccccc2)sc1C(=O)NCCN(C)C`, with 611 s.
As to `Cc1cc(N2CCN(C(=O)c3cncc(Br)c3)CC2)nc2ccccc12`, the RP-LC retention time was 623 s.
Next, `CCCNc1nc(-c2ccc(OC)cc2)nc2ccccc12`: 734 s; `Cc1cccc(NC(=O)CSc2ccc(N3CCCC(C(=O)NC4CC4)C3)nn2)c1` (centres undefined): 648 s.
In turn, `O=C(c1ccsc1)N1CCC(n2c(C3CCCC3)nc3cccnc32)C1` (centres undefined) showed an RP-LC retention time of 636 s.
For the compound `COc1ccc(NC(=O)N2CCC3(CC2)NC(=O)c2ccc(Cl)cc2N3C)cc1OC`, the RP-LC retention time was determined as 734 s.
As to `CCc1ccc(NC(=O)COc2cc(C)nc(N3CCN(c4ccccc4)CC3)n2)cc1`, the RP-LC retention time came to 885 s.
`O=C(NCCN1CCOCC1)c1ccc2c(c1)CCCN2S(=O)(=O)c1ccc(Cl)cc1`: the RP-LC retention time is 689 s.
Next, `COc1ccc(Cl)cc1NC(=O)N1CCC(c2cc(N)on2)CC1`: 760 s.
Next, `O=C(NCc1ccc(F)cc1F)c1ccc2c(c1)nc1n2CCN(c2ccccc2)C1=O`: 781 s; `CCn1cc(-c2nc(C(=O)Nc3ccccc3F)cs2)c2cccnc21`: 1130 s; `COc1cc(Nc2ncc(C(=O)O)c(C(C)C)n2)cc(OC)c1`: 892 s.
Next, `CC(=O)O[C@H]1C[C@@H]2OC3C=C(C)CCC3(C)[C@@]1(C)[C@@]21CO1` (some centres undefined): 833 s; `COc1cccc(Cn2c(=O)c3sccc3n(Cc3nc(-c4ccc(C)c(C)c4)no3)c2=O)c1`: 1200 s.
As for `COC(=O)CNC(=O)NC(Cc1ccc(F)cc1)Cc1ccc2c(c1)OCO2` (centres undefined), the RP-LC retention time worked out at 834 s.
In turn, `CCn1nccc1C(=O)NC1CCN(C2=NS(=O)(=O)C(c3ccc(F)cc3)=C2C)CC1` had an RP-LC retention time of 788 s.
Next, `Cc1cc(N(C)C)nc(N2CCN(C(=O)c3ccc(Br)cc3)CC2)n1`: 658 s; `O=C(CCNC(=O)Cn1cnc2ccccc2c1=O)NCCc1c[nH]c2ccccc12`: 668 s; `FC(F)(F)c1nc(N2CCN(Cc3ccccc3)CC2)nc2c1CCCCC2`: 885 s.
On to `COc1ccc(-c2nnc3sc(COc4ccc(Br)cc4)nn23)cc1`, for which the RP-LC retention time is 1060 s.
`CCNC(=O)c1nc(C(=O)NCCC(C)C)cs1` gave an RP-LC retention time of 771 s.
Then `COc1ccc(-c2nc(C)cc(C)c2CNS(=O)(=O)c2cccc(C#N)c2)cc1`, with 640 s; and `COc1ccc(S(=O)(=O)CCC(=O)NC(C(=O)N2CCCc3ccccc32)c2ccccc2)cc1` (centres undefined), with 928 s; and `CCOC(=O)C1=C(CN2CCC(c3ccccc3)C2)NC(=O)NC1c1cccc(OC)c1OC` (centres undefined), with 687 s.
For `CCCN(CC1CCOC1)C(=O)c1ccc(F)cc1F` (centres undefined), the RP-LC retention time stood at 743 s.
Then `CCCn1ncc(N2CCC(C(=O)N3CCN(CC)CC3)CC2)cc1=O`, with 567 s; and `CCOC(=O)Cc1csc(NC(=O)C2CCN(c3cc(-n4ccnc4)ncn3)CC2)n1`, with 576 s; and `CCC(=O)N1CCc2ccccc2C1C(=O)NCc1ccc2c(c1)OCO2` (centres undefined), with 761 s.
The compound `CC1(C(=O)NCc2ccc3c(c2)OCO3)CCN(C(=O)c2ccc(C#N)cc2)CC1` gave an RP-LC retention time of 754 s.
Next, `Cc1ccc(CNc2cc(-n3cccn3)ncn2)cc1`: 898 s; `COCCNC(=O)COc1nc(C)nc2onc(-c3ccc(F)cc3)c12`: 782 s; `COc1ccc(-n2nnc(C(=O)N3CCOCC3)c2C)cc1Cl`: 684 s.
With `CCc1nn2c(CNC(=O)c3cccn3C)c(-c3ccccc3)nc2s1`, the RP-LC retention time amounted to 882 s.
Then `COc1cc(C(=O)N2CCCN(c3cc(=O)n(C)c(=O)n3C)CC2)cc(OC)c1OC`, with 624 s; and `O=C(Cc1ccsc1)N1CCC(n2c(-c3ccco3)nc3cccnc32)C1` (centres undefined), with 689 s; and `Cc1[nH]c2ccccc2c1C(=O)C(=O)NC(C)c1ccccc1` (centres undefined), with 794 s.
Next, `O=C(NCc1ccc(F)cc1F)c1cn2cc(Cl)ccc2n1`: 858 s; `CC(C)c1noc(-c2cc(=O)n(CC(=O)Nc3ccc(N(C)C)cc3)c3ccccc23)n1`: 737 s; `CN(C)S(=O)(=O)c1cccc(-c2nnc(-c3ccccc3Cl)o2)c1`: 941 s.
